In one assay the test system is serum TNF. Description: LPS/GAL mouse model of endotoxic shock. The assay is classed as in vivo. From the text:
(§1) Two models of endotoxin shock have been utilized to determine in vivo TNF activity for the compounds of Formula (1). The protocol used in these models is described in Badger et al., EPO published Application 0 411 754 A2, Feb. 6, 1991, and in Hanna, WO 90/15534, Dec. 27, 1990.

In assay [1] the test system is TNF production / endotoxic shock. Description: P acnes/LPS treated mice model of endotoxic shock. The class given is in vivo.
Source text: as §1

In a further assay the test system is TNF / endotoxin shock. Description: Two in vivo models of endotoxin shock (one or both, not specified). Also noted: species or system mouse. The settings on record: for protection from the lethal effects of endotoxin shock: in vivo endotoxin shock models.
Source text: as §1

Take `COc1ccc(CCNC(=O)C(N)=O)cc1OC1CCCC1` [Example 15, N-[2-(3-Cyclopentyloxy-4-methoxyphenyl)ethyl]oxamide]: in the assay with serum TNF, the “serum TNF levels” value is given as “reduction in serum TNF levels”. The molecule also had a survival rate in assay [1] (P acnes/LPS model, control group 100% lethality) of 80%. Also, the TNF production result in assay [1] (P acnes/LPS treated mice) is on record as “inhibition of TNF production”. For the same molecule, the “protection from the lethal effects of endotoxin shock” value with TNF / endotoxin shock is “protection from the lethal effects of endotoxin shock”.
As to `COc1ccc(CCNC(=O)C(N)=O)cc1OC` [Example 8, N-[2-(3,4-Dimethoxyphenyl)ethyl]oxamide], the “protection from the lethal effects of endotoxin shock” value with TNF / endotoxin shock is given as “protected the animals from endotoxic induced shock”. In addition, the “in vivo TNF levels” value with TNF / endotoxin shock (one or both of the in vivo assays) is “inhibited in vivo TNF levels”.

The values are drawn from patent US5393788A, “Phenylalkyl oxamides” (SmithKline Beecham Corporation, priority 1993, dated 1995).
